PubChem BioAssay AID463204 (Broad Institute, 2010)
Calls of active or inactive are those of the source.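 The calls were made as follows: active = AC50 no more than ten times the top concentration tested, that is within one log above it; inconclusive = flat curve fit with activity between 30% and 70%, or invalid poor fit; inactive = AC50 beyond ten times the top tested dose.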

System: S. cerevisiae Mot1-301 ts growth rescue, BacTiter-Glo ATP luminescence
Assay: restored Mot1-301 yeast growth at 38.5C – whole organism, S. cerevisiae, Mot1-301 ts mutant, luminescence, dose retest, SUMOylation pathway inhibitor project, confirmation (AID 463204);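 also: growth at restrictive 38.5 degrees C of Mot1-301 OY566 strain; actives raise luminescence by restoring growth of the ts mutant at high temperature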

Compound: COC(=O)C12CCC3(SCCS3)C(C(=O)OC)(CCC13SCCS3)C2
- AC50: 7.24 µM

Compound: COC(=O)c1ccccc1NC(=O)c1cnn2c(C)cc(C)nc12
- AC50: > 42 µM (inactive)

Compound: CCOC(=O)C(C)(C)Sc1nc2c(cnn2-c2ccc(C)cc2)c(=O)[nH]1
- AC50: > 42 µM (inactive)

Compound: COc1ccc(N2CCN(C(=O)CNC(=O)Cc3ccc(Cl)cc3)CC2)cc1
- AC50: > 42 µM (inactive)

Compound: COc1ccccc1NC(=O)c1ccc(-n2ccnc2)c([N+](=O)[O-])c1
- AC50: > 42 µM (inactive)

Compound: O=C(CSc1nnc(CNC(=O)c2ccccc2F)o1)NCCc1ccccc1
- AC50: > 42 µM (inactive)

Compound: O=[N+]([O-])c1cncc([N+](=O)[O-])c1Nc1ccccc1Cl
- AC50: 9.62 µM

Compound: CC(C)n1c(O)c(N=Nc2ccccn2)c2ccccc21
- AC50: > 42 µM (inactive)

Compound: CCOCCn1c(-c2ccc(OC)cc2)nc2ccccc21
- AC50: > 42 µM (inactive)

Compound: CCOC(=O)c1cnc2ccc(Cl)cc2c1N1CCN(C)CC1
- AC50: > 42 µM (inactive)

Compound: [N-]=[N+]=NCCN1CCC(O)CCC1=O (stereo not drawn)
- AC50: > 42 µM (inactive)

Compound: Cc1ccc(C(=O)NCC(=O)Nc2ccc3c(c2)OCCO3)cc1
- AC50: > 21 µM (inactive)

Compound: Cc1nc2c3ccccc3nc(NNC(=O)CCC(=O)N3CCCC(C)C3)n2n1 (stereo not drawn)
- AC50: > 42 µM (inactive)

Compound: O=C(Nc1cccc(Cl)c1)OCc1cncs1
- AC50: > 42 µM (inactive)

Compound: Cc1ccn2cc(-c3cnoc3C)nc2c1
- AC50: > 42 µM (inactive)

Compound: Cc1nnsc1C(=O)N1CCC(CO)(Cc2ccccc2Cl)CC1
- AC50: > 42 µM (inactive)

Compound: CC(=O)Nc1ccc(S(=O)(=O)Nc2ccc3c(c2)C(=O)OC3)cc1
- AC50: > 42 µM (inactive)

Compound: Cc1c(C(=O)N2CCN(CCc3ccccc3)CC2)oc2ccccc12
- AC50: > 42 µM (inactive)

Compound: CCn1c(SC(=O)NC2CCCCC2)nnc1-c1cccs1
- AC50: 11.6 µM

Compound: CCc1cc2c(=O)c(-c3ccc(F)cc3)c(C(F)(F)F)oc2cc1OCC(=O)O
- AC50: > 42 µM (inactive)

Compound: Cc1nc(N/N=C\c2ccc3c(c2)OCO3)sc1C
- AC50: 33.5 µM

Compound: CCC(C)(C(=O)NC1CCCC1)N(C(=O)c1ccccn1)c1ccc(C)cc1 (stereo not drawn)
- AC50: > 42 µM (inactive)

Compound: O=S(=O)(NCc1ccco1)c1ccc2ccccc2c1
- AC50: > 42 µM (inactive)

Compound: COc1ccc(OC)c(N(CC(=O)N2CCCC2)S(=O)(=O)c2ccccc2)c1
- AC50: > 42 µM (inactive)

Compound: O=C(NCCCn1ccnc1)c1ccc(Cl)cc1
- AC50: > 42 µM (inactive)

Compound: Cc1cc(=O)oc(C)c1C(=O)Nc1ccc(Cl)cn1
- AC50: > 42 µM (inactive)

Compound: CCOC(=O)c1ccc(NC(=S)NCCCN2CCOCC2)cc1
- AC50: > 110 µM (inactive)

Compound: S=c1[nH]nc(-c2ccccn2)n1/N=C/c1ccccc1
- AC50: > 42 µM (inactive)

Compound: COc1cccc(OC)c1OCC(O)CN1CCN(c2ccccc2)CC1 (stereo not drawn)
- AC50: > 42 µM (inactive)

Compound: O=C(c1ccc(OC2CCN(CCc3ccccc3)CC2)cc1)N1CCCC1
- AC50: > 42 µM (inactive)

Compound: CCCc1ccccc1OCCNC(C)=O
- AC50: > 42 µM (inactive)

Compound: CCc1ccc(NC(=S)N(Cc2cccc(Br)c2)CC2CCC(C(=O)O)CC2)cc1 (stereo not drawn)
- AC50: > 42 µM (inactive)

Compound: CC(=O)Nc1ccc(C(=O)NCCCOC(C)C)cc1
- AC50: > 42 µM (inactive)

Compound: CCOCCCNCc1ccc(OCc2ccc(F)cc2)c(OC)c1
- AC50: > 42 µM (inactive)

Compound: N#Cc1c(Cn2cncn2)nc(=O)n(-c2ccc(Cl)cc2)c1N
- AC50: > 42 µM (inactive)

Compound: Cc1cc(CNC(=O)C2CCC(=O)N(Cc3ccccc3F)C2)on1 (stereo not drawn)
- AC50: > 42 µM (inactive)

Compound: O=CNCCCc1nc2ccccc2n1CCc1ccccc1
- AC50: > 42 µM (inactive)

Compound: CC(C)CNc1cc(=O)n(C)c(=O)n1C
- AC50: > 42 µM (inactive)

Compound: Cc1cc(/C=N/NC(=O)c2ccsc2)c(C)n1-c1cnccn1
- AC50: > 42 µM (inactive)

Compound: c1coc(C2OCC3(CO2)COC(c2ccco2)OC3)c1 (stereo not drawn)
- AC50: > 42 µM (inactive)

Compound: Fc1ccc2c(c1)nnn2C1CCN(Cc2nnnn2C2CCCCC2)CC1
- AC50: > 42 µM (inactive)

Compound: C=C(C)Cc1c(C)c(C#N)c2[nH]c3ccccc3n2c1=O
- AC50: > 42 µM (inactive)

Compound: O=C(CSc1nnc(COc2ccccc2Cl)o1)NC(=O)NC1CCCC1
- AC50: > 42 µM (inactive)
